# Where a SMILES comes first, the peptide text is derived from it. Bridges are numbered along the chain shown (N, C = ends).
# Assays:
# Nav1.9 = target: T1, Nav1.9 (Homo sapiens, UniProt Q9UI33); test: Whole-cell patch-clamp, fast inactivation of Nav1.9 in ND7/23 cells; assay type: cell-based; conditions: 100 ms depolarization to −40 mV from −120 mV, Hill fit, mean ± SEM, n = 6, read-out: EC50 for inhibition of the fast inactivation of Nav1.9
# T1 construct: expressed in transfected cells; host or cells: ND7/23
# T1 sequence (Q9UI33 whole entry): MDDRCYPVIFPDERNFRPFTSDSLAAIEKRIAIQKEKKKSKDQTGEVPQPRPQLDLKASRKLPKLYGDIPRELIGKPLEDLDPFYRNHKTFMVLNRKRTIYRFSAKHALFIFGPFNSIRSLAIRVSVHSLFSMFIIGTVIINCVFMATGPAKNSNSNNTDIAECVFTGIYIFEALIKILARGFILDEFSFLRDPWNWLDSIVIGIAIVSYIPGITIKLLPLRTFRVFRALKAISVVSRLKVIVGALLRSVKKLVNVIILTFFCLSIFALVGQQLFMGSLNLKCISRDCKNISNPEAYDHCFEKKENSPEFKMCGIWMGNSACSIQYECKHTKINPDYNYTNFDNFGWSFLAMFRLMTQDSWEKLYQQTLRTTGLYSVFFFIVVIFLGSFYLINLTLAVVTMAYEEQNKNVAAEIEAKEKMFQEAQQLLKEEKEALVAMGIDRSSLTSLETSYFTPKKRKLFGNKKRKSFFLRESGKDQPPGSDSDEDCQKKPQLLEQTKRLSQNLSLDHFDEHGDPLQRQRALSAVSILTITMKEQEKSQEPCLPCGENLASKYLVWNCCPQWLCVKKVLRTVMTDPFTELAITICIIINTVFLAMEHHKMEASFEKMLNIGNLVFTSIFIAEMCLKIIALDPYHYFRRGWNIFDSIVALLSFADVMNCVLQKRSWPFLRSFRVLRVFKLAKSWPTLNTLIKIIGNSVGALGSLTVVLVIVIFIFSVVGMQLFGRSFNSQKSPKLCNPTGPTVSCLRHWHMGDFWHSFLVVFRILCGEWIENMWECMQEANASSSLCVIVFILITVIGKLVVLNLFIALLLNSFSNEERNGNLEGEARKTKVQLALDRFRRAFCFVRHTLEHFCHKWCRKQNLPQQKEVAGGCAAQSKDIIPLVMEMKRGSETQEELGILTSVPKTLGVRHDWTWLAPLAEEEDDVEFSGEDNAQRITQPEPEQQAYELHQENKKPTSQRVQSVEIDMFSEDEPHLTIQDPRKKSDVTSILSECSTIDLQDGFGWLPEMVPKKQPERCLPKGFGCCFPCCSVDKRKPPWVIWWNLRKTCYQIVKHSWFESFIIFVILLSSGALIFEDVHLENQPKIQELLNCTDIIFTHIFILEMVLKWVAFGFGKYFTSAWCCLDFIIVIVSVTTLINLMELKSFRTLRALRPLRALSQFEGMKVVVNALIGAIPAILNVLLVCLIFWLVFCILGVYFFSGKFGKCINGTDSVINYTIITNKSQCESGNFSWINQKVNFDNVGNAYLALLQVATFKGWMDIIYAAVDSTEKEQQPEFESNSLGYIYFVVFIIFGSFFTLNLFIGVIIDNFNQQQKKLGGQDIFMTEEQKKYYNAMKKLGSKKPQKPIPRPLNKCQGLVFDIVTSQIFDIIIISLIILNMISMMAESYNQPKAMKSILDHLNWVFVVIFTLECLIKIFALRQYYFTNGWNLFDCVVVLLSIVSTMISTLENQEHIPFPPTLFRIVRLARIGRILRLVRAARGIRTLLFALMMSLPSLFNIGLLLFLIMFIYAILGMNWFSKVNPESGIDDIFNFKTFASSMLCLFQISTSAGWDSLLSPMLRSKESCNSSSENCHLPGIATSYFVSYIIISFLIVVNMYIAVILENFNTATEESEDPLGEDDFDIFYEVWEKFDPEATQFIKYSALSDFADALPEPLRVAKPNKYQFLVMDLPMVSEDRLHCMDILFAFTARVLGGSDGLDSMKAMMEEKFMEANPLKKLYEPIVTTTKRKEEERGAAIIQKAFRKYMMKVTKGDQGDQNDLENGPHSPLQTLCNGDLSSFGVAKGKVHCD
# Source text: (§1) Rat Nav1.4, human Nav1.7 and rat Nav1.8 cDNA clones were kindly gift from Dr. Theodore Cummins (Stark Neurosciences Research Institute, Indiana University School of Medicine, Indianapolis, IN, United States) and were subcloned into the pCMV or pCDNA3.1-blank vectors. Human Nav1.9 was subcloned into the pEGFP-N1 vector. The C-terminal of hNav1.9 was linked to GFP to construct a fusion protein channel (hNav1.9-eGFP), which was as described in our previous studies ([Zhou et al., 2017]). Mutations were made using the site-directed mutation method or recombination-based cloning using GenBuilder™ Cloning Kit (GenScript, United States). Primers presented in Supplementary Tables 1–4. All mutations were verified by DNA sequencing.
# (§2) ND7/23 and HEK293T cells were maintained at 37°C in a humidified 5% CO2 incubator in Dulbecco’s Modified Eagle’s Medium (DMEM) supplemented with 10% fetal bovine serum, 100 μg/ml streptomycin, 100 U/ml penicillin, and 2 mM L-glutamine. The cells were trypsinized, diluted with 1 ml of culture medium, and seeded at a 1:5 ratio in 35 mm Petri dishes for culture. When grown to 80–90% confluence, the ND7/23 cells were transfected with hNav1.9-GFP or hNav1.9-GFP mutants using the X-tremeGENE HP DNA Transfection Reagent (Roche, Basel, Switzerland) according to the manufacturer’s instructions. […]
# Nav1.4 = target: T2, Nav1.4 (Rattus norvegicus, UniProt P15390); test: Whole-cell patch-clamp, Nav1.4 current in HEK293T cells; assay type: cell-based; conditions: 50 ms steps to −10 mV from −90 mV, n = 4–6, read-out: IC50 for inhibition of Nav1.4 current
# T2 construct: expressed in transfected cells; host or cells: HEK293T
# Source text: as §1, §2
# Nav1.7 = target: T3, Nav1.7 (Homo sapiens, UniProt Q15858); test: Whole-cell patch-clamp, Nav1.7 current in HEK293T cells; assay type: cell-based; conditions: 50 ms steps to −10 mV from −90 mV, n = 4–6, read-out: IC50 for inhibition of Nav1.7 current
# T3 construct: expressed in transfected cells; host or cells: HEK293T
# T3 sequence (Q15858 whole entry): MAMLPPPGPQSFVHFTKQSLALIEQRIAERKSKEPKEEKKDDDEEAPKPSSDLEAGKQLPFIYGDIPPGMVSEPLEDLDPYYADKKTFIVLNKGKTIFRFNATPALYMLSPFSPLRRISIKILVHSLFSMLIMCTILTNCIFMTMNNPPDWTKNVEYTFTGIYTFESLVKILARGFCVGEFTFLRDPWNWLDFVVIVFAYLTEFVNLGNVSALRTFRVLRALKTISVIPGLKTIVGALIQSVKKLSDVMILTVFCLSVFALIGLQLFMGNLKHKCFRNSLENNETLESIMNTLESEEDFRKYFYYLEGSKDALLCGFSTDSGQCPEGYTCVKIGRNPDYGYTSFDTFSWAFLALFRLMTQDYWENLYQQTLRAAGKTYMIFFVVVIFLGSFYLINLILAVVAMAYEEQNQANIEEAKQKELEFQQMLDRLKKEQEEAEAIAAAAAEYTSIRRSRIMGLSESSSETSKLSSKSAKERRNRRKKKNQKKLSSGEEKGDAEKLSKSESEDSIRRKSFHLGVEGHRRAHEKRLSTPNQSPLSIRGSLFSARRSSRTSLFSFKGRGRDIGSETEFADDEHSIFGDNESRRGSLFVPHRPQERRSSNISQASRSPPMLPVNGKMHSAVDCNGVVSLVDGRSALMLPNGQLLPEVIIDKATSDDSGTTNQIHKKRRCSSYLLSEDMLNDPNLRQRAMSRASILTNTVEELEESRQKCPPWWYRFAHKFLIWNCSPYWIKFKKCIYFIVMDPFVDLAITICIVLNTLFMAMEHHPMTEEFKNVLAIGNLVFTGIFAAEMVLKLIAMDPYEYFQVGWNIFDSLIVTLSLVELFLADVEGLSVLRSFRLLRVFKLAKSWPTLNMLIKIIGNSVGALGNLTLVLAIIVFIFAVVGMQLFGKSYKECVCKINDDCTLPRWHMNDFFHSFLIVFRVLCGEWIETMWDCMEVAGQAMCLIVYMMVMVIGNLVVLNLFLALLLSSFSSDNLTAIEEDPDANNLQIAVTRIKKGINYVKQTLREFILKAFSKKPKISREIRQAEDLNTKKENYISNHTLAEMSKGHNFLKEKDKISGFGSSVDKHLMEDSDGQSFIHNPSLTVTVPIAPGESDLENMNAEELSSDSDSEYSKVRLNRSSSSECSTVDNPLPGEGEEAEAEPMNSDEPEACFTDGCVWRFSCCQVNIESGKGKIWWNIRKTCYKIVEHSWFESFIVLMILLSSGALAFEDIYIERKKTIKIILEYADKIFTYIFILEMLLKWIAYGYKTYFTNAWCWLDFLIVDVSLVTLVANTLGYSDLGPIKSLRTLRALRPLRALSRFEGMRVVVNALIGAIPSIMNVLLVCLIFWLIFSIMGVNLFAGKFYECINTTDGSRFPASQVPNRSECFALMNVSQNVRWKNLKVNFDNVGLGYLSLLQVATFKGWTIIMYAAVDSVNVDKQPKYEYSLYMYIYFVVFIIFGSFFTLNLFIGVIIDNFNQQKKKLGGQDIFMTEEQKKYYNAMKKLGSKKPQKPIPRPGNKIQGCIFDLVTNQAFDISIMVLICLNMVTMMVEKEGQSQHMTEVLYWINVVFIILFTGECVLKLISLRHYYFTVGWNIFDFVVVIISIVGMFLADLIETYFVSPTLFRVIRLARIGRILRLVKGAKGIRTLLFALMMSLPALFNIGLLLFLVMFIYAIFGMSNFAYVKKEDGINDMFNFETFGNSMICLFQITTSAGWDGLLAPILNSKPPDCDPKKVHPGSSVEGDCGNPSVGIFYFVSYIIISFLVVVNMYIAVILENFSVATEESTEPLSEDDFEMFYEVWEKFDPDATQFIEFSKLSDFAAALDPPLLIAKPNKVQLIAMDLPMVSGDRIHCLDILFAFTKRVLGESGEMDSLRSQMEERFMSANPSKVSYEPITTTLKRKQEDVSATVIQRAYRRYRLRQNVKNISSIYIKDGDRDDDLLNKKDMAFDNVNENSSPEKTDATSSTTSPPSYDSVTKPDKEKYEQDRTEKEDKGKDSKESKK
# Source text: as §1, §2
# Nav1.9/1.8 DIV VSD = target: T4, Nav1.9/1.8 DIV VSD (Homo sapiens, UniProt Q9UI33, A1385V/A1393E/C1434F/D1399G/DEL1452-1455/H1400R/I1367A/I1373M/I1377C/I1397V/I1408V/I1415M/I1417M/I1446F/I1464V/INS1447AILK/K1392E/K1395T/L1401I/L1411G/L1414V/L1431V/L1438I/M1394K/M1445L/N1389E/P1391G/P1456Y/P1458S/R1481K/S1365R/S1374V/S1382T/S1387T/S1396K/T1444L/T1448S/V1404F/V1407A/V1435I/V1442G/V1465I/V1477I/W1403Q/Y1388D); test: Patch-clamp, chimera Nav1.9/1.8 DIV VSD; assay type: cell-based, human Nav1.9 / rat Nav1.8; conditions: mean ± SEM, n = 4; I95/Ipeak; read-out: EC50 for inhibition of the fast inactivation
# T4 construct: expressed in transfected cells; host or cells: ND7/23
# Source text: as §1, §2
# [1] = test system: voltage sensor of Nav channels; conditions: ref Xiao et al., 2008, 2010, Zhou et al., 2020, Liu et al., 2013; cited from earlier work
# Source text: Gating modifier toxins typically affect channel gating by regulating the voltage-sensor of the channel. […] Ther ...
# Kv2.1 channel = conditions: ref Chen et al., 2012; Bemporad et al., 2006; cited from earlier work
# Source text: The venom of the spider Grammostola rosea contains several classes of peptide toxins that target ion channels (Figure 1A). […] Due to poor heterologous expression in mammal cells, pharmacological studies of the Nav1.9 channel have lagged. Previously, we succeeded in achieving functional ...
# Nav1.7 channel = test system: Nav1.7 channel; parameters: method as in 3 sources, one per row (each row's own in cited_ref): ref Murray et al., 2015 ||| ref Chen et al., 2020 ||| ref Xiao et al., 2010; conditions: ProTx-II; ref Xiao et al., 2010; cited from earlier work
compound,measurement,setting,value
"CC[C@H](C)[C@@H]1NC(=O)[C@H](CC(N)=O)NC(=O)[C@@H]2CCCN2C(=O)[C@H](Cc2c[nH]c3ccccc23)NC(=O)[C@H](CCCCN)NC(=O)[C@H](CCCNC(=N)N)NC(=O)[C@H](CCCCN)NC(=O)[C@@H]2CSSC[C@@H]3NC(=O)[C@H](CO)NC(=O)CNC(=O)[C@H](Cc4c[nH]c5ccccc45)NC(=O)[C@H](Cc4ccccc4)NC(=O)[C@H](CCC(N)=O)NC(=O)[C@H](CCCCN)NC(=O)[C@@H](NC(=O)[C@@H](N)CCC(=O)O)CSSC[C@H](NC(=O)[C@H](CSSC[C@@H](C(=O)N[C@@H](CC(C)C)C(=O)N[C@@H](Cc4c[nH]c5ccccc45)C(=O)N[C@@H](CC(=O)O)C(=O)NCC(=O)N[C@H](C(=O)N[C@@H](Cc4ccccc4)C(=O)N[C@@H](CO)C(=O)N[C@@H](CCCCN)C(=O)O)[C@@H](C)O)NC1=O)NC(=O)[C@H](CC(=O)O)NC(=O)[C@H](CO)NC(=O)[C@H](CC(=O)O)NC(=O)[C@H](CCCNC(=N)N)NC(=O)[C@H](CO)NC3=O)C(=O)N[C@@H](CCCCN)C(=O)N[C@@H](Cc1c[nH]cn1)C(=O)N[C@@H](CC(C)C)C(=O)NCC(=O)N2 [Gr4b, δ-theraphotoxin-Gr4b] (H-ECKQFWGSCSRDSDCCKHLGCKRKWPNICLWDGTFSK-OH; disulfide 2-16, 9-21, 15-29)",EC50,Nav1.9,25 ± 1 nM
same,IC50,Nav1.4,411 ± 184 nM
same,IC50,Nav1.7,27 ± 3 nM
same,EC50,Nav1.9/1.8 DIV VSD,1500 ± 250 nM
HWTX-IV,reversal of toxin binding by depolarization,[1],reversed by prolonged strong depolarizations
"HaTx1 (ECRYLFGGCKTTSDCCKHLGCKFRDKYCAWDFTFS; UniProt P56852 50-84, looked up)",inhibition of Kv2.1 currents,Kv2.1 channel,significantly inhibit the currents of the Kv2.1 channel
ProTx-II,"inhibition of Nav1.7 current, voltage dependence",Nav1.7 channel,inhibits the current of the Nav1.7 channel with a significant voltage dependence
